Entries after “also recorded” stand apart in the source; their conditions may differ.

The test system of series [1] is donor and recipient strains. The experiment in a line: growth of donor and recipient strains in LB medium with 2-AP. Type of series: cell-based, E. coli. The following applies: 37° C., compared to growth without 2-AP (about 3 hours). As for the experimental part: The conjugation experiments have been performed under the previously described conditions (Rayssiguier et al., 1989). The overnight cultures of donor strains (2-4×10^9 cells/ml) comprising the DNA sequence to be introduced and recipient strains comprising the autologous DNA sequences were diluted 50-fold into fresh LB medium, with or without 2-aminopurine (Sigma), and grown with gentle shaking (about 150 rpm) in order to obtain 2-4×10^8 cells/ml. In order to obtain the required concentration of cells, about 3 hours of incubation is required. When cells were treated with 2-AP, the growth was slightly slower (the incubation was about 30 minutes longer) compared to the growth without 2-AP. The 2-AP treatment of the donor and recipient strains before mating is preferred as 2-AP must be incorporated in the DNA during replication in order to saturate mismatch repair. The doses of 2-AP tested were: 25 μg/ml, 50 μg/ml, 75 μg/ml, 100 μg/ml, 300 μg/ml and 600 μg/ml. The effect of 2-AP treatment was already significant when 50 μg/ml of 2-AP was used. […] Mating mixtures were prepared by mixing together Hfr and F^− bacteria in a 1:1 ratio. This mixture was filtered through a sterile 0.45-μm-pore size nitrocellulose filter (2.5 cm diameter), using vacuum filtration equipment (MILLIPORE). […] Recombinants were scored after incubation of 48 hours at 37° C.

For series [2], the system named is interspecies S. typhimurium Hfr×E. coli F^− conjugational recombination. The experiment in a line: interspecies S. typhimurium Hfr×E. coli F^− conjugational recombination (Thr^+ recombinants per Hfr donor). It counts as cell-based. An excerpt:
(§1) FIG. 1: Influence of 2-aminopurine (2-AP) on the efficiency of intraspecies E. coli Hfr×E. coli F^− and interspecies S. typhimurium Hfr×E. coli F^− conjugational recombination. Recipient E. coli strains were either mutS^+ (A, C) or mutS^− (B, D). The recombination frequencies for the selected marker (Thr^+) are expressed per Hfr donor after subtracting unmated revertants. Each number represents the mean (± standard error) of at least three independent experiments.
The conjugation experiments have been performed under the previously described conditions (Rayssiguier et al., 1989). The overnight cultures of donor strains (2-4×10^9 cells/ml) comprising the DNA sequence to be introduced and recipient strains comprising the autologous DNA sequences were diluted 50-fold into fresh LB medium, with or without 2-aminopurine (Sigma), and grown with gentle shaking (about 150 rpm) in order to obtain 2-4×10^8 cells/ml. In order to obtain the required concentration of cells, about 3 hours of incubation is required. When cells were treated with 2-AP, the growth was slightly slower (the incubation was about 30 minutes longer) compared to the growth without 2-AP. The 2-AP treatment of the donor and recipient strains before mating is preferred as 2-AP must be incorporated in the DNA during replication in order to saturate mismatch repair. The doses of 2-AP tested were: 25 μg/ml, 50 μg/ml, 75 μg/ml, 100 μg/ml, 300 μg/ml and 600 μg/ml. The effect of 2-AP treatment was already significant when 50 μg/ml of 2-AP was used. […] Mating mixtures were prepared by mixing together Hfr and F^− bacteria in a 1:1 ratio. This mixture was filtered through a sterile 0.45-μm-pore size nitrocellulose filter (2.5 cm diameter), using vacuum filtration equipment (MILLIPORE). The filters with mating mixtures i.e. mixtures with cells comprising autologous and introduced nucleotide sequences were incubated on fresh LB agar plate (with or without 2-aminopurine) prewarmed at 37° C. […] For this purpose, the M9 medium [supplemented with arginine, histidine, leucine, proline and tryptophane (100 μg/ml each), thiamine (30 μg/ml), glucose (0.4%), and nalidixic acid (40 μg/ml) to counter-select the Hfr donor cells] was used. Threonine was not added to the media in order to select Thr^+ recombinants. Recombinants were scored after incubation of 48 hours at 37° C.
The recombination between these two bacterial species, which have about 16% divergence in their genomic sequences, is very low (10^−8-10^−7; FIG. 1A) compared to intraspecies recombination (about 10^−1; FIG. 1C). Inactivation of the mutS or mutL gene in recipient cells according to the present invention using 2-AP increases about 10^3-10^4-fold the frequency of interspecies recombination (FIG. 1B, FIG. 2A and 2B).

The target of the next series is T1, MutL protein (Escherichia coli, UniProt P23367).
T1 construct: endogenous in cells; host or cells: E. coli K12 AB1157 derivatives (MX4, MX5); In MX5 (mutL218::Tn10), MutL comes from plasmid pMQ339 (mutL+)
T1 sequence (P23367 whole entry): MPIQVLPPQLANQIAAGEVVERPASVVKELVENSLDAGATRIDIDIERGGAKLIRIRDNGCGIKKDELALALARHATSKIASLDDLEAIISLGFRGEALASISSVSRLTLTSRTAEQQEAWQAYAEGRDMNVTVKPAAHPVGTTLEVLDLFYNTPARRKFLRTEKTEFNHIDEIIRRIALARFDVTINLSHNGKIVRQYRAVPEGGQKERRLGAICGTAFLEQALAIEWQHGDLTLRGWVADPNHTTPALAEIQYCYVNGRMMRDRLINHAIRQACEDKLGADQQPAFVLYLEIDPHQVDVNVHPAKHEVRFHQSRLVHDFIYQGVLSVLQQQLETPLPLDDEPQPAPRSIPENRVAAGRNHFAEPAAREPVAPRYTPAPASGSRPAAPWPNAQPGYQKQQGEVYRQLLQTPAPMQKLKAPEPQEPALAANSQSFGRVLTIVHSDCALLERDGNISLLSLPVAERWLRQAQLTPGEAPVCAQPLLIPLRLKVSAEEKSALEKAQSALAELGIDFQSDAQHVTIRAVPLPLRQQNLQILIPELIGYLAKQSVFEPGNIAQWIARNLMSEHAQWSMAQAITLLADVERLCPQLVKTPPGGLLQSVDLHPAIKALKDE
The experiment in a line: identification of the mismatch-repair system component saturated or inhibited by 2-AP (complementation with mutS^+ or mutL^+ plasmids). The following applies: 2-AP 300 mg/ml (so in the source); plasmids carrying mutS^+ or mutL^+. Type of series: cell-based, E. coli. As for the experimental part:
FIG. 2: Identification of the mismatch-repair system component, which is saturated or inhibited with 2-aminopurine (2-AP) treatment. Recipient E. coli strains were either […] (A, B) or mutL^− (C, D). The mismatch repair deficiency was complemented with plasmids carrying mutS^+ (A, B) or mutL^+ genes (C, D). The dose of 2-AP used in these experiments was always 300 mg/ml. The recombination frequencies for the selected marker (Thr^+) are expressed per Hfr donor after subtracting unmated revertants. Each number represents the mean (± standard error) of at least three independent experiments.
Plasmids carrying mutS^+ or mutL^+ genes were indroduced by electrotransformation (using BIO RAD micro pulser apparatus) in MX4 and MX5 strains, respectively.
(§2) The conjugation experiments have been performed under the previously described conditions (Rayssiguier et al., 1989). The overnight cultures of donor strains (2-4×10^9 cells/ml) comprising the DNA sequence to be introduced and recipient strains comprising the autologous DNA sequences were diluted 50-fold into fresh LB medium, with or without 2-aminopurine (Sigma), and grown with gentle shaking (about 150 rpm) in order to obtain 2-4×10^8 cells/ml. In order to obtain the required concentration of cells, about 3 hours of incubation is required. […] Recombinants were scored after incubation of 48 hours at 37° C.

Series [3] concerns intraspecies E. coli Hfr×E. coli F^− conjugational recombination. The experiment in a line: intraspecies E. coli Hfr×E. coli F^− conjugational recombination (Thr^+ recombinants per Hfr donor). Type of series: cell-based. Conditions: mutS^+ (wildtype) or mutS^− background.
From the text: as §1
as §2, with “required. When cells were treated with 2-AP, the growth was slightly slower (the incubation was about 30 minutes longer) compared to the growth without 2-AP. The 2-AP treatment of the donor and recipient strains before mating is preferred as 2-AP must be incorporated in the DNA during replication in order to saturate mismatch repair.” for “required.”

Turning to `Nc1ncc2[nH]cnc2n1` [2-AP, 2-aminopurine], the “additional incubation time needed to reach 2-4×10^8 cells/ml (slower growth) with 2-AP” value in series [1] is recorded as “about 30 minutes”. Besides, the “2-AP dose at which the effect on recombination was already significant” value in series [2] (doses tested 25-600 μg/ml) came to 50 µg/mL. Moreover, the “2-AP dose of maximal effect on recombination efficiency” value in series [2] (doses tested 25-600 μg/ml, further increases did not increase recombination efficiency further) is 100 µg/mL. Further, in series [2] (mutS^− recipient (FIG. 1B) compared with wildtype (FIG. 1A)), the “2-AP effect on interspecies recombination in mutS^− recipient background” value is recorded as “not as pronounced as in a wildtype background”. Further, in series [2] (wild-type recipient cells, in particular at and above 75 μg/ml), the “2-AP concentration range in which an increase of recombination frequency is seen” value was 50 to 600 µg/mL. Besides, the “component of the MRS titrated or inactivated by the 2-AP treatment” value at MutL protein is “MutL protein”. For the same molecule, the “effect of 2-AP on frequency of intraspecies recombination” value in series [3] is reported as “not considerably increased; also recorded: not modified”.
